These results are taken from ChEMBL document CHEMBL6121009, “Identification of a selective pyruvate dehydrogenase kinase 1 (PDHK1) chemical probe by virtual screening” (Eur J Med Chem, 2025).

Assay [1] concerns the target [Pyruvate dehydrogenase (acetyl-transferring)] kinase isozyme 4, mitochondrial (Homo sapiens, UniProt Q16654).
Description: Inhibition of human PDHK4 using myelin basic protein as substrate pre-incubated for 20 min followed by addition of [gamma-33P]-ATP measured after 2 hrs by Radiometric Hotspot kinase assay
The target in assay [2] is [Pyruvate dehydrogenase (acetyl-transferring)] kinase isozyme 3, mitochondrial (Homo sapiens, UniProt Q15120).
Description: Inhibition of human PDHK3 using myelin basic protein as substrate pre-incubated for 20 min followed by addition of [gamma-33P]-ATP measured after 2 hrs by Radiometric Hotspot kinase assay
In assay [3] the target is [Pyruvate dehydrogenase (acetyl-transferring)] kinase isozyme 2, mitochondrial (Homo sapiens, UniProt Q15119).
Description: Inhibition of human PDHK2 using PDHKtide and Mn2+ as substrates pre-incubated for 20 min followed by addition of [gamma-33P]-ATP measured after 2 hrs by Radiometric Hotspot kinase assay

Chain of [Pyruvate dehydrogenase (acetyl-transferring)] kinase isozyme 4, mitochondrial (Q16654 whole entry): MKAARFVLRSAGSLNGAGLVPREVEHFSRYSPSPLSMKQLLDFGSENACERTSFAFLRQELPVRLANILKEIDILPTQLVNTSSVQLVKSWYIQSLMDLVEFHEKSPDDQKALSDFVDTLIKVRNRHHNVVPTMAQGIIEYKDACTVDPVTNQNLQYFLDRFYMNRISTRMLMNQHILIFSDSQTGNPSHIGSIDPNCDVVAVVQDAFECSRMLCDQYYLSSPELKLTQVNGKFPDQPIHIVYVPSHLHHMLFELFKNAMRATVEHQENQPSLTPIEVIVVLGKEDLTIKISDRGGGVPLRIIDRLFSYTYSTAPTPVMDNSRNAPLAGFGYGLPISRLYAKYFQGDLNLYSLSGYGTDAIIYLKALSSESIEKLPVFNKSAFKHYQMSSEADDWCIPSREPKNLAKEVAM
Chain of [Pyruvate dehydrogenase (acetyl-transferring)] kinase isozyme 3, mitochondrial (Q15120 whole entry): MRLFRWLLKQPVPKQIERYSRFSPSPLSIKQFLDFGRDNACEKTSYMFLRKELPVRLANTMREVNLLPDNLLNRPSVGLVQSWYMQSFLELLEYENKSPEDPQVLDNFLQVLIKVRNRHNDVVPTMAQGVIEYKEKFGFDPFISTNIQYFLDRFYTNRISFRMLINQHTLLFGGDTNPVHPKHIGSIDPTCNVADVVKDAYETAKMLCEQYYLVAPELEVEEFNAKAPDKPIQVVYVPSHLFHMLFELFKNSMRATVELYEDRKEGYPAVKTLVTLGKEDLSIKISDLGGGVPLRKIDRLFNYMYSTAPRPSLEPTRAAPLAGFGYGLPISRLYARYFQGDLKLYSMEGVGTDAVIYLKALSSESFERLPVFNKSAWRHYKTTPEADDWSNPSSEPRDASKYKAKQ

As to `O=C(O)c1ccc(Br)c(NS(=O)(=O)c2ccc(Cl)s2)c1`, the IC50 in assay [1], in assay [2] and in assay [3] was above 30 µM in each case.

As to `O=C(O)c1ccc(Br)c(NS(=O)(=O)c2cc(Cl)cc(Cl)c2)c1`, the IC50 is 17 µM in assay [1], above 30 µM in assay [2] and above 30 µM in assay [3].

Turning to `COc1cc(C(=O)O)cc(NS(=O)(=O)c2cc(Cl)ccc2C)c1Cl`, the IC50 in assay [1], in assay [2] and in assay [3] was above 30 µM in each case.

Regarding `Cc1ccc(Cl)cc1S(=O)(=O)Nc1cc(C#N)ccc1Br`, the results for the IC50 in assay [1], in assay [2] and in assay [3] were 15.5 µM, above 30 µM and above 30 µM, respectively.

On to `Cc1ccc(Cl)cc1S(=O)(=O)Nc1cc(Br)cc(C(=O)O)c1`, for which the half-inhibitory concentration (IC50) was 23.6 µM in assay [1], above 30 µM in assay [2] and above 30 µM in assay [3].

On to `CSc1ccc(C(=O)O)cc1NS(=O)(=O)c1cc(Cl)ccc1C`, for which the IC50 in assay [1], in assay [2] and in assay [3] was above 30 µM each time.

On to `Cc1ccc(Cl)cc1S(=O)(=O)Nc1cc(C(=O)O)ccc1Br`, for which the half-maximal inhibitory concentration (IC50) in assay [1] is 30 µM; in assay [2], above 30 µM; in assay [3], above 30 µM.

`O=C(O)C(Cl)Cl` [DICHLOROACETIC ACID]: the IC50 in assay [1] was 108 µM; in assay [2], above 5000 µM; in assay [3], above 5000 µM.

By IC50 is commonly meant the concentration at which inhibition is half-maximal.
